Data on 1 sequence can be found in US20250042968A1, “EPHRIN LIGAND MIMETIC PEPTIDES FOR THE TREATMENT OF NEURODEGENERATIVE DISEASES” (University of Miami, priority 2022, published 2025).

Assay [1] relates to RhoA. The experiment in a line: Western blot of RhoA in mRGCs. It is filed as cell-based, mouse. Particulars: 500 nM. As for the experimental part: (§1) On day 4, cells were treated with pre-clustered recombinant mouse EfnA5-His ligand [(+) Control, using anti-His_Tag antibody for 30 minutes] for 2 hours. Cells were then lysed in RIPA buffer containing protease and phosphatase inhibitor cocktails and maintained on ice. Protein was quantified using a BCA assay, and 10 μg of total protein was run on a TGX stain-free Any kD gel (BioRad) and transferred using the trans-blot turbo system (BioRad). Following transfer and blocking in 5% nonfat milk for 1 h, blots were probed with antibodies against RhoA, phosphorylated Rac1, ARHGEF15, Ephexin-1, or beta-actin as an endogenous loading control overnight at 4° C. Blots were then washed 3×5 min in PBS-T and incubated in the appropriate HRP-conjugated secondary antibody for 2 h at room temperature. Blots were imaged using chemiluminescent ECL substrate (Pierce) on a BioRad ChemiDoc MP imaging system and software.

The subject of assay [2] is phosphorylated Rac1. Nature of the assay: Western blot of phosphorylated Rac1 in mRGCs. It is filed as cell-based, mouse. Particulars: 500 nM. As for the experimental part:
as §1

Assay [3] deals with Ephexin-1. The experiment in a line: Western blot of phosphorylated Ephexin-1 in mRGCs. In kind it is cell-based, mouse. Particulars: 500 nM. As for the experimental part:
as §1

Assay [4] concerns isolated mouse RGCs. Nature of the assay: Immunofluorescent staining of TUBB3 and F-actin in isolated mouse RGCs. In kind it is cell-based. Particulars: 1 μM, 4 days. An excerpt: In order to assess the effect of xEFN peptide supplementation on Eph-receptor modulation, various in vitro assays were employed on isolated mouse RGCs. […] Similarly, xEFN_RBD1, and 3 inhibited the phosphorylation of Rac1 by pre-clustered ephirnA5 ligand stimulation. […] TUBB3 is a marker specific for neuronal microtubules and functions as a neuronal-specific marker.

In assay [5] the test system is human fetal brain-derived neural stem cells (hNSC). Nature of the assay: hNSC growth on ephrin-ligand repulsive substrates. Particulars: 500 nM, 5-day culture, over control cultures. In kind it is cell-based. As for the experimental part: Fetal brain-derived neural stem cells (hNSC): In order to evaluate the effect of xEFN peptides on human neuronal cells, StemPro hNSC were purchased from ThermoFisher Scientific (Cat. no. A15654) and cultured according to the manufacturer's recommended protocol. Briefly, cells were grown in non-adherent neurosphere suspension cultures in StemPro NSC serum-free media (NSC-SFM) (Cat. no. A10509-01) supplemented with 2 mM GlutaMAX-I supplement, 6 U/mL heparin, and 200 μM ascorbic acid (Sigma-Aldrich, Cat. no. A8960). Culture media was changed every 2 days and cells were passaged every 7 days as undifferentiated hNSC. To induce differentiation into neuronal cells, hNSC neurospheres were dissociated into single-cell suspensions using StemPro Accutase for 5 minutes at 37° C. followed by mechanical pipetting. hNSC were then plated onto Geltrex-coated culture vessels at a concentration of 2×10^4 cells/cm^2 in neuronal differentiation media consisting of NSC media without bFGF or EGF and supplemented with B-27 supplement (ThermoFisher Scientific) for 3 days prior to performing further in vitro assays.
Glial-bound efn ligands have been associated with mediating the major repulsive milieu for neuronal process in the CNS. […] Moreover, assays on the repulsive nature of efn ligand-presenting surfaces have been a mainstay in axonal guidance studies for many decade. The use of xEFN peptides to antagonize this repulsive signaling from efn ligand substrates was evaluated on human fetal brain-derived neural stem cells (hNSC).
Recombinant Efn ligands (A2, A4, and B3) containing a His-Tag were purchased from R&D Systems, and were pre-clustered using an anti-His antibody (Genetex) for 30 min. The pre-clustered Efn ligands, or anti-his antibody alone, (control) were then mixed with laminin from human placenta (Sigma-Aldrich) in suspension and used to coat the growth surface of a 24-well plate. […] The entire wells were then scanned using an EVOS FL Auto fluorescent microscope and the images were analyzed in the ImageJ software to calculate cell coverage area.

Assay [6] has as its system RGCs and optic nerve axons after optic nerve crush (ONC). The experiment in a line: Mouse model of optic nerve crush (ONC), intravitreal xEFN peptides. Particulars: for RGC pool rescue / survival over PBS-treated controls: intravitreal, 4 weeks after injury; for regenerating axons compared to controls: starting at 100 μm past the injury site and throughout the analysis window. In kind it is in vivo. As for the experimental part: Antagonizing forward Eph signaling has been proven beneficial in a number of CNS disorders (Neurogastroenterol Motil. 2020:e13782; Acta Neuropathol Commun. 2018; 6(1):111; Proc Natl Acad Sci USA. 2014 Jul. 8; 111(27):9959-64; Eur J Neurosci. 2014 Oct; 40(7):3021-31; Neuroscience. 2013 Jun. 25; 241:89-99). The use of xEFN peptides as multi-Eph receptor antagonists was evaluated in treating retinal degeneration induced by optic nerve crush (ONC). The ONC model is the most commonly used model for the study of glaucoma and other optic neuropathies. All animal experiments were performed in compliance with the National Institutes of Health (Bethesda, MD, USA) Guide for the Care and Use of Laboratory Animals and the ARVO Statement for the Use of Animals in Ophthalmic and Vision Research. Animal protocols were reviewed and approved by the Institutional Animal Care and Use Committee of the University of Miami. […] With the use of jeweler's forceps (Dumont No. 5; tip dimension, 0.1×0.06 mm), the optic nerve is then crushed for 10 seconds at a location 2 mm distal from its insertion point into the globe. […] […]. At 4 weeks post-injury, animals were euthanized and enucleated for extraction of the retinas and optic nerves. Retinas were stained by immunohistochemistry for TUBB3 and RGCs were manually counted in each animal. Optic nerves were placed into tissue clearing solution for 1 week and then imaged for the CTB-647 label as whole mounts using a Leica SP8 Laser Scanning Confocal microscope (Leica Microsystems). Axonal projections were quantified at 100 μm intervals along the optic nerve track for up to 2 mm past the crush site using the fluorometric intensity measurement and analysis tool in the Leica LAS X microscopy suite software package, using the contralateral nerve (not CTB-injected) as a background reading for 647 nm fluorometric intensity in each sample.

Entries after “also recorded” stand apart in the source; their conditions may differ.

As for FTIKFQEFSPNLWGL [xEFN_RBD3], the “expression of the GTPase RhoA” value in assay [1] is listed as “downregulates”. For the same sequence, the “phosphorylation of Rac1 by pre-clustered ephrinA5 ligand stimulation” value in assay [2] is “inhibited”. Further, the “phosphorylation of Ephexin-1” value in assay [3] is listed as “decrease”. Further, the “neuroprotection seen by TUBB3 expression versus control in vitro cultures” value in assay [4] is given as “neuroprotection; also recorded: effectively preserved RGCs”. Moreover, in assay [5], the “confluence coverage on efnA2 substrate” value is 120.62+/−10.89%, the “confluence coverage on efnA4 substrate” value is on record as 125.83+/−2.92% and the “confluence coverage on efnB3 substrate” value was 96.51+/−7.15%. The RGC survival in assay [6] (6 μg intravitreal twice (immediately after ONC and 7 days after), 4 weeks, compared to uninjured contralateral retina) is recorded as 44.17+/−2.39%. In assay [6] (CTB labeled axons, 4 weeks post-ONC, analysis region 2000 μm), the “axonal projections detected distal to the crush site” value is reported as not below 2000 μm. Moreover, in assay [6], the “RGC pool rescue / survival over PBS-treated controls” value is on record as “significant rescue” and the “regenerating axons compared to controls” value is “significant increase”. Further, in assay [6] (listed as xEFN_EBD3), the “RGC pool rescue / survival over PBS-treated controls” value is listed as “significant RGC survival” and the “regenerating axons compared to controls” value is on record as “axonal regeneration”.
